Measured values as given in patent US5422341A, “Motilin-like polypeptides with gastrointestinal motor stimulating activity” (Ohmeda Pharmaceutical Products Division Inc., priority 1993, dated 1995).
Counter-ions that a name gives are not always drawn. Square brackets hold non-standard residues; d marks the D form. Peptide text beside a SMILES is read from it. * marks the point of attachment. X1 = C[N+](C)(C)[C@@H](Cc1ccccc1)C(=O)*; NMe2Phe = CN(C)[C@@H](Cc1ccccc1)C(=O)*; X4 = CCN(CC)[C@@H](Cc1ccccc1)C(=O)*; NMeF = CN[C@@H](Cc1ccccc1)C(=O)O; dOrn = NCCC[C@@H](N)C(=O)O

Columns and labels:
[1] = biological target: T1, motilin receptor (Oryctolagus cuniculus, UniProt G1T803); experiment: Determination of motilin receptor binding affinity (displacement of [125I-Tyr7, Nle13]motilin(porcine)); parameters: species or system rabbit; conditions: negative logarithm of the concentration displacing 50% of [125I-Tyr7, Nle13]motilin(porcine) from rabbit antral smooth muscle membranes; read-out: pIC50 (converted)
T1 construct: from tissue; host or cells: rabbit antral smooth muscle membranes
T1 sequence (G1T803 1-400): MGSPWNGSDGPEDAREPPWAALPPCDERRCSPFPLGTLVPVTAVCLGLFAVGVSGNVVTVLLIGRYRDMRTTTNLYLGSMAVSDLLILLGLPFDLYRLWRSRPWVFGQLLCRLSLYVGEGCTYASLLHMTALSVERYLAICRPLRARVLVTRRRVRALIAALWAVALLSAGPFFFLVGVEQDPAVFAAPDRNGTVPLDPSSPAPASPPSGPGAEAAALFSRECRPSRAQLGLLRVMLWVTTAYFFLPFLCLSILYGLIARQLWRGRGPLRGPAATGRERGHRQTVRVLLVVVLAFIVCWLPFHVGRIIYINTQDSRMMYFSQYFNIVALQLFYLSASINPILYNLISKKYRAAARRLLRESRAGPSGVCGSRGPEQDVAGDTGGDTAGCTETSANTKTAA
Procedure: The motilin receptor binding affinity of the peptides of this invention was determined by using the general procedure of Bormans, Peelers and Vantrappen, Regul. […] Fitting was performed using the iterative least-squares procedure of the SAS-software package (SAS Institute, Inc., Cary, N.C., USA).

[2] = biological target: segments of rabbit duodenum (Oryctolagus cuniculus, UniProt G1T803); experiment: Rabbit duodenal smooth muscle strip tissue bath assay; type: cell-based; conditions: negative logarithm of the dose giving 50% of the maximal response to motilin; isotonic contraction of rabbit duodenum segments
Chain of segments of rabbit duodenum (G1T803 1-400): as above
Procedure: The contractile response of segments of rabbit duodenum was determined isotonically in the tissue bath according to the procedure of Depoortere et at., J. Gastrointestinal Motility, 1, 150-159 (1989). The experimental protocol consisted of an equilibration period of 1 hour; a challenge with 10^-4 M acetylcholine followed by a wash-out period; a cumulative dose-response curve of a compound with, at the end, the addition of 10^-7 M motilin; and finally 10^-4 M acetylcholine. If the final response to 10^-4 M acetylcholine differed by more than 5% from the initial response, the results were discarded. The compounds were tested in the concentration range 10^-11 to 10^-4 M. The point corresponding to 50% of the maximal response to motilin (Emax) was determined by fitting the equation E=Emax (1+EC50 /[L]) through the data points. […] The dose giving 50% of the response is expressed using its negative logarithm (pEC50).

[3] = system: canine gastrointestinal tract; experiment: Contractile activity in the canine gastrointestinal tract; type: in vivo, dog; conditions: anesthetized dogs, intra-arterial injection to a duodenal segment; amount giving 50% of the calibration response to field stimulation
Procedure: Mongrel dogs of either sex were anesthetized with sodium pentobarbital 65 mg/kg intravenously. A mid-line incision was made in the abdomen. A duodenal segment was located, the terminal arteries to that segment were identified, and the closest possible artery of the appropriate size was rubbed clean of fat and fascia. A needle of suitable diameter was bent at an angle and the tip inserted in the cleaned artery. The needle was held in position in the artery for approximately 30 seconds until vascular spasm has relaxed and then a catheter assembly was inserted into the artery and tied into position with 000 silk sutures. The fine polyethylene catheter (10-15 cm) was cut to a point at one end with a needle inserted at the other end. The hub of the needle was fitted with a 3-way stopcock and the catheter assembly was filled with heparinized Krebs Ringer bicarbonate containing 10 mM glucose. A bolus of Krebs (free of air) was injected into the arterial catheter and the distribution of blanching in the segment noted. If the area was too large, collateral arteries may be tied off as long as circulation to the area was maintained. A Bass type strain gauge was then sutured to the serosa, and oriented so that circular muscle contractions can be recorded on a Beckman R611 dynograph. Silver wire electrodes were inserted subserosally on either side of the strain gauge and were connected through stimulus isolation units to a Grass S88 electrical stimulator. Electrical field stimulation was applied at 40 V 0.5 ms and 5 pps and the amplitude of the pen recorder was set to contain the contractile response.
All peptides to be injected were dissolved in Krebs and serial dilutions were prepared so that for any concentration the maximum volume to be injected was 1 ml. All solutions except stock Krebs were held on ice for the day of the experiment and discarded at the end of the day. For determination of a dose-response curve, the site was first injected with a bolus of approximately 1 ml of heparinized Krebs to provide a flush control. Peptide agonists (in volumes of 1 ml flushed with 1 ml of Krebs) were injected in logarithmic increments until a response which was maximal in amplitude was obtained. The injection site was then flushed with Krebs containing 0.1% BSA to displace any peptide remaining in the arterial line. For peptides acting at the motilin receptor, care was taken not to inject supramaximal doses as these will induce tachyphylaxis. Therefore, as responses become apparent, 0.3 or 0.5 log unit increments were used. A site was used for a dose-response determination only every 1/2 to 1 hour.
The amplitude of the calibration response to field stimulation in each site was measured and used as 100% for that site. The amplitude of the response to the agonist at each dose was determined, calculated as a % of the calibration response and plotted against the concentration. The ED50 of the response represents the amount of agonist required to produce a response which was 50% of the calibration response.

SMILES | IC50 [1] [nM] | pEC50 [2] | ED50 [3] [nmol]
CC[C@H](C)[C@H](NC(=O)[C@H](C)NC(=O)[C@@H](NC(=O)[C@H](Cc1ccccc1)NC)C(C)C)C(=O)N[C@@H](Cc1ccccc1)C(=O)N[C@H](C(=O)N[C@@H](Cc1ccc(O)cc1)C(=O)NCC(=O)N[C@@H](CCC(=O)O)C(=O)N[C@@H](CC(C)C)C(=O)N[C@@H](C)C(=O)N[C@H](CCCNC(=N)N)C(=O)N[C@@H](CC(C)C)C(=O)N[C@@H](CCCCN)C(N)=O)[C@@H](C)O (H-[NMeF]VAIFTYGELA[dR]LK-NH2) | 0.724 | 7.77 | 0.001
CC[C@H](C)[C@H](NC(=O)[C@H](C)NC(=O)[C@@H](NC(=O)[C@H](Cc1ccccc1)NC)C(C)C)C(=O)N[C@@H](Cc1ccccc1)C(=O)N[C@H](C(=O)N[C@@H](Cc1ccc(O)cc1)C(=O)NCC(=O)N[C@@H](CCC(=O)O)C(=O)N[C@@H](CC(C)C)C(=O)N[C@@H](CCC(N)=O)C(=O)N[C@H](CCCNC(=N)N)C(=O)N[C@@H](CC(C)C)C(=O)N[C@@H](CCCCN)C(N)=O)[C@@H](C)O (H-[NMeF]VAIFTYGELQ[dR]LK-NH2) | 0.631 | 7.72 | 0.06
CC[C@H](C)[C@H](NC(=O)[C@H](C)NC(=O)[C@@H](NC(=O)[C@H](Cc1ccccc1)NC)C(C)C)C(=O)N[C@@H](Cc1ccccc1)C(=O)N[C@H](C(=O)N[C@@H](Cc1ccc(O)cc1)C(=O)NCC(=O)N[C@@H](CCC(=O)O)C(=O)N[C@@H](CC(C)C)C(=O)N[C@@H](CCC(N)=O)C(=O)N[C@H](CCCNC(=N)N)C(=O)N[C@@H](CC(C)C)C(=O)N[C@@H](CCC(N)=O)C(N)=O)[C@@H](C)O (H-[NMeF]VAIFTYGELQ[dR]LQ-NH2) |  |  | 0.024
CC[C@H](C)[C@H](NC(=O)[C@@H]1CCCN1C(=O)[C@@H](NC(=O)[C@H](Cc1ccccc1)NC)C(C)C)C(=O)N[C@@H](Cc1ccccc1)C(=O)N[C@H](C(=O)N[C@@H](Cc1ccc(O)cc1)C(=O)NCC(=O)N[C@@H](CCC(=O)O)C(=O)N[C@@H](CC(C)C)C(=O)N[C@@H](C)C(=O)N[C@H](CCCNC(=N)N)C(=O)N[C@@H](CC(C)C)C(=O)N[C@@H](CCC(N)=O)C(N)=O)[C@@H](C)O (H-[NMeF]VPIFTYGELA[dR]LQ-NH2) |  |  | 0.0018
CC[C@H](C)[C@H](NC(=O)[C@@H]1CCCN1C(=O)[C@@H](NC(=O)[C@H](Cc1ccccc1)NC)C(C)C)C(=O)N[C@@H](Cc1ccccc1)C(=O)N[C@H](C(=O)N[C@@H](Cc1ccc(O)cc1)C(=O)NCC(=O)N[C@@H](CCC(=O)O)C(=O)N[C@@H](CC(C)C)C(=O)N[C@@H](CCC(N)=O)C(=O)N[C@H](CCCNC(=N)N)C(=O)N[C@@H](CC(C)C)C(=O)N[C@H](CCC(N)=O)C(N)=O)[C@@H](C)O (H-[NMeF]VPIFTYGELQ[dR]L[dQ]-NH2) |  |  | 0.0004
CC[C@H](C)[C@H](NC(=O)[C@H](C)NC(=O)[C@@H](NC(=O)[C@H](Cc1ccccc1)N(C)C)C(C)C)C(=O)N[C@@H](Cc1ccccc1)C(=O)N[C@H](C(=O)N[C@@H](Cc1ccc(O)cc1)C(=O)NCC(=O)N[C@@H](CCC(=O)O)C(=O)N[C@@H](CC(C)C)C(=O)N[C@@H](C)C(=O)N[C@H](CCCNC(=N)N)C(=O)N[C@@H](CC(C)C)C(=O)N[C@@H](CCCCN)C(N)=O)[C@@H](C)O (NMe2Phe-VAIFTYGELA[dR]LK-NH2) | 0.708 | 7.74 | 0.003
CC[C@H](C)[C@H](NC(=O)[C@@H]1CCCN1C(=O)[C@@H](NC(=O)[C@@H](N)Cc1ccccc1)C(C)C)C(=O)N[C@@H](Cc1ccccc1)C(=O)N[C@H](C(=O)N[C@@H](Cc1ccc(O)cc1)C(=O)NCC(=O)N[C@@H](CCC(=O)O)C(=O)N[C@@H](CC(C)C)C(=O)N[C@@H](CCC(N)=O)C(=O)N[C@H](CC(N)=O)C(=O)N[C@@H](CC(C)C)C(=O)N[C@@H](CCC(N)=O)C(=O)O)[C@@H](C)O [[D-Asn^12, Leu^13]pMOT(1-14)] (H-FVPIFTYGELQ[dN]LQ-OH) | 7.59 | 6.82 | 
CC[C@H](C)[C@H](NC(=O)[C@@H]1CCCN1C(=O)[C@@H](NC(=O)[C@@H](N)Cc1ccccc1)C(C)C)C(=O)N[C@@H](Cc1ccccc1)C(=O)N[C@H](C(=O)N[C@@H](Cc1ccc(O)cc1)C(=O)NCC(=O)N[C@@H](CCC(=O)O)C(=O)N[C@@H](CC(C)C)C(=O)N[C@@H](CCC(N)=O)C(=O)N[C@H](CCC(N)=O)C(=O)N[C@@H](CC(C)C)C(=O)N[C@@H](CCC(N)=O)C(=O)O)[C@@H](C)O [[D-Gln^12, Leu^13]pMOT(1-14)] (H-FVPIFTYGELQ[dQ]LQ-OH) | 5.62 | 7.06 | 
CC[C@H](C)[C@H](NC(=O)[C@@H]1CCCN1C(=O)[C@@H](NC(=O)[C@@H](N)Cc1ccccc1)C(C)C)C(=O)N[C@@H](Cc1ccccc1)C(=O)N[C@H](C(=O)N[C@@H](Cc1ccc(O)cc1)C(=O)NCC(=O)N[C@@H](CCC(=O)O)C(=O)N[C@@H](CC(C)C)C(=O)N[C@@H](CCC(N)=O)C(=O)N[C@H](CCCN)C(=O)N[C@@H](CC(C)C)C(=O)N[C@@H](CCC(N)=O)C(=O)O)[C@@H](C)O [[D-Orn^12, Leu^13]pMOT(1-14)] (H-FVPIFTYGELQ[dOrn]LQ-OH) | 4.27 | 6.83 | 
CC[C@H](C)[C@H](NC(=O)[C@@H]1CCCN1C(=O)[C@@H](NC(=O)[C@H](Cc1ccccc1)N(CC)CC)C(C)C)C(=O)N[C@@H](Cc1ccccc1)C(=O)N[C@H](C(=O)N[C@@H](Cc1ccc(O)cc1)C(=O)NCC(=O)N[C@@H](CCC(=O)O)C(=O)N[C@@H](CC(C)C)C(=O)N[C@@H](CCC(N)=O)C(=O)N[C@@H](CCCNC(=N)N)C(=O)N[C@@H](CC(C)C)C(=O)N[C@@H](CCC(N)=O)C(N)=O)[C@@H](C)O [[Et2 Phe^1, Leu^13]pMOT(1-14) amide] (X4-VPIFTYGELQRLQ-NH2) | 3.89 | 7.54 | 
CC[C@H](C)[C@H](NC(=O)[C@@H]1CCCN1C(=O)[C@@H](NC(=O)[C@H](Cc1ccccc1)[N+](C)(C)C)C(C)C)C(=O)N[C@@H](Cc1ccccc1)C(=O)N[C@H](C(=O)N[C@@H](Cc1ccc(O)cc1)C(=O)NCC(=O)N[C@@H](CCC(=O)O)C(=O)N[C@@H](CC(C)C)C(=O)N[C@@H](CCC(N)=O)C(=O)N[C@@H](CCCNC(=N)N)C(=O)N[C@@H](CC(C)C)C(=O)N[C@@H](CCC(N)=O)C(=O)O)[C@@H](C)O [[Me3 N^+ Phe^1, Leu^13]pMOT(1-14), [1-N,N,N-Trimethylphenylalanine, 13-leucine]motilin-(1-14)-peptide (Porcine) Bis-trifluoroacetate Salt] (X1-VPIFTYGELQRLQ-OH) | 3.55 | 7.69 | 
CC[C@H](C)[C@H](NC(=O)[C@@H]1CCCN1C(=O)[C@@H](NC(=O)[C@@H](N)Cc1ccccc1)C(C)C)C(=O)N[C@@H](Cc1ccccc1)C(=O)N[C@H](C(=O)N[C@@H](Cc1ccccc1)C(=O)NCC(=O)N[C@@H](CCC(=O)O)C(=O)N[C@@H](CC(C)C)C(=O)N[C@@H](CCC(N)=O)C(=O)N[C@H](CCCNC(=N)N)C(=O)N[C@@H](CC(C)C)C(=O)N[C@@H](CCC(N)=O)C(=O)O)[C@@H](C)O [[Phe^7, D-Arg^12, Leu^13]pMOT(1-14)] (H-FVPIFTFGELQ[dR]LQ-OH) | 8.51 | 6.92 | 
